Measured values taken from US9730447B2, “Fungicidal amides” (E I DU PONT DE NEMOURS AND COMPANY, priority 2013, dated 2017).
Marks after values point to notes of the source that are not given here.

Experiments:
Type in all cases: in vivo
Botrytis cinerea = assay: Test A: preventive spray on tomato seedlings, Botrytis cinerea (gray mold), visual disease rating; details: 96 h, 100 = 100% disease control, 0 = no control relative to controls, unmarked values
Text: (§1) General protocol for preparing test suspensions for Tests A-E: the test compounds were first dissolved in acetone in an amount equal to 3% of the final volume and then suspended at the desired concentration (in ppm) in acetone and purified water (50/50 mix by volume) containing 250 ppm of the surfactant Trem® 014 (polyhydric alcohol esters). The resulting test suspensions were then used in Tests A-E. Compounds were sprayed with either a 40 ppm or 10 ppm (*) test suspension to the point of run-off on the test plants which is the equivalent of a rate of 160 g ai/ha or 40 g ai/ha, respectively.
The test suspension was sprayed to the point of run-off on tomato seedlings. The following day the seedlings were inoculated with a spore suspension of Botrytis cinerea (the causal agent of gray mold on many crops) and incubated in a saturated atmosphere at 20° C. for 48 h, and moved to a growth chamber at 27° C. for 2 days, after which time visual disease ratings were made.
(§2) Results for Tests A-E are given in Table A. In the Table, a rating of 100 indicates 100% disease control and a rating of 0 indicates no disease control (relative to the controls). A dash (-) indicates no test results.

[1] = system: Stagonospora nodorum (also known as Septoria nodorum); assay: Test B: preventive spray on wheat seedlings, Stagonospora nodorum (wheat glume blotch), visual disease rating
Text: as §1
The test suspension was sprayed to the point of run-off on wheat seedlings. The following day the seedlings were inoculated with a spore suspension of Stagonospora nodorum (also known as Septoria nodorum; the causal agent of wheat glume blotch) and incubated in a saturated atmosphere at 20° C. for 48 h, and then moved to a growth chamber at 20° C. for 6 days, after which time visual disease ratings were made.
as §2

[2] = system: Puccinia recondite f. sp. tritici; assay: Test D: preventive spray on wheat seedlings, Puccinia recondite f. sp. tritici (wheat leaf rust), visual disease rating
Text: as §1
The test suspension was sprayed to the point of run-off on wheat seedlings. The following day the seedlings were inoculated with a spore suspension of Puccinia recondite f. sp. tritici; (the causal agent of wheat leaf rust) and incubated in a saturated atmosphere at 20° C. for 24 h, and then moved to a growth chamber at 20° C. for 6 days, after which time visual disease ratings were made.
as §2

[3] = system: Erysiphe graminis f. sp. tritici; assay: Test E: preventive spray on wheat seedlings, Erysiphe graminis f. sp. tritici (wheat powdery mildew), visual disease rating
Text: as §1
The test suspension was sprayed to the point of run-off on wheat seedlings. The following day the seedlings were inoculated with a spore dust of Erysiphe graminis f. sp. tritici, (the causal agent of wheat powdery mildew) and incubated in a growth chamber at 20° C. for 8 days, after which time visual disease ratings were made.
as §2

Septoria tritici = assay: Test C: preventive spray on wheat seedlings, Septoria tritici (wheat leaf blotch), visual disease rating
Text: as §1
The test suspension was sprayed to the point of run-off on wheat seedlings. The following day the seedlings were inoculated with a spore suspension of Septoria tritici (the causal agent of wheat leaf blotch) and incubated in a saturated atmosphere at 24° C. for 48 h, and then moved to a growth chamber at 20° C. for 21 days, after which time visual disease ratings were made.
as §2

[4] = 100 = 100% disease control, 0 = no control, unmarked values
[5] = values marked with asterisk (*), meaning not given

Row | Structure (SMILES) | pest or weed control at 40 µg/mL, 160 g/ha (Botrytis cinerea) [%] | Test B disease control rating [1, 4] [%] | Test D disease control rating [2, 4] [%] | Test E disease control rating [3, 4] [%] | Test C disease control rating (Septoria tritici; [4]) [%] | Test D disease control rating [2, 5] | Test E disease control rating [3, 5] | Test C disease control rating (Septoria tritici; [5]) | Test B disease control rating [1, 5]
1 | O=C(Nc1ccccc1-c1cnc(-n2ccc(C(F)(F)F)n2)cn1)c1ncccc1C(F)(F)F [Compound 3, 3-(trifluoromethyl)-N-[2-[5-[3-(trifluoromethyl)-1H-pyrazol-1-yl]-2-pyrazinyl]phenyl]-2-pyridinecarboxamide] | 0 | – | – | – | – | – | – | – | –
2 | O=C(Nc1ccccc1-c1cnc(-n2ccc(C(F)(F)F)n2)c(Cl)c1)c1ncccc1C(F)(F)F [Compound 34, N-[2-[5-chloro-6-[3-(trifluoromethyl)-1H-pyrazol-1-yl]-3-pyridinyl]phenyl]-3-(trifluoromethyl)-2-pyridinecarboxamide] | 96 | – | – | – | – | – | – | – | –
3 | O=C(Nc1ccccc1-c1ccc(-n2cc(Br)cn2)nc1)c1ncccc1C(F)(F)F [compound 14] | – | 100 | 99 | 98 | 100 | – | – | – | –
4 | Cn1cc(C(=O)Nc2ccccc2-c2ccc(-n3cccn3)nc2)c(C(F)F)n1 [compound 15] | – | 99 | 100 | 97 | 100 | – | – | – | –
5 | COc1cccc(-c2cnn(-c3ccc(-c4ccccc4NC(=O)c4ncccc4C(F)(F)F)cn3)c2)c1 [compound 16] | – | 100 | 99 | 69 | 100 | – | – | – | –
6 | COc1cccc(C2CC(c3ccc(-c4ccccc4NC(=O)c4cn(C)nc4C(F)F)cn3)=NO2)c1 (centres unmarked) [compound 102] | – | 99 | 100 | 73 | 97 | – | – | – | –
7 | CC1=C(C(=O)Nc2ccccc2-c2cnc(-n3ccc(C(F)(F)F)n3)c(F)c2)SCCO1 [compound 113] | – | 0 | 97 | 0 | 77 | – | – | – | –
8 | CC1=C(C(=O)Nc2ccccc2-c2cnc(-n3ccc(C(F)(F)F)n3)c(F)c2)S(=O)(=O)CCO1 [compound 114] | – | 0 | 100 | 64 | 84 | – | – | – | –
9 | O=C(Nc1ccccc1-c1cnc(-n2ccc(C(F)(F)F)n2)c(F)c1)c1nccnc1C(F)(F)F [compound 115] | – | 100 | 100 | 100 | 98 | – | – | – | –
10 | O=C(Nc1ccccc1-c1cnc(-n2ccc(C(F)(F)F)n2)c(F)c1)c1ncsc1C(F)(F)F [compound 126] | – | 99 | 100 | 99 | 99 | – | – | – | –
11 | Cn1cc(C(=O)Nc2ccccc2-c2cnc(-n3ccc(C(F)(F)F)n3)c(C#N)c2)c(C(F)(F)F)n1 [compound 127] | – | 0 | – | – | – | 100* % | 40* % | 62* % | –
12 | COc1cccc(C2CC(c3ccc(-c4ccccc4NC(=O)c4ncccc4C(F)(F)F)cn3)=NN2C)c1 (centres unmarked) [compound 130] | – | 11 | 97 | 69 | 89 | – | – | – | –
13 | O=C(Nc1ccccc1-c1cnc(-n2ccc(C(F)(F)F)n2)c(Cl)c1)c1ccccc1C(F)F [compound 132] | – | 0 | 99 | 98 | 99 | – | – | – | –
14 | O=C(Nc1ccccc1-c1cnc(-n2ccc(C(F)(F)F)n2)c(F)c1)c1nccnc1Cl [compound 149] | – | 95 | 99 | 98 | 97 | – | – | – | –
15 | Cn1cc(C(=O)Nc2ccccc2-c2cnc(-n3ccc(C(F)(F)F)n3)c(F)c2)c(C(F)(F)F)n1 [compound 150] | – | 92 | 100 | 99 | 98 | – | – | – | –
16 | Cc1nc(C(F)(F)F)c(C(=O)Nc2ccccc2-c2cnc(-n3ccc(C(F)(F)F)n3)c(F)c2)s1 [compound 151] | – | 0 | 100 | 98 | 98 | – | – | – | –
17 | Cc1ccsc1C(=O)Nc1ccccc1-c1cnc(-n2ccc(C(F)(F)F)n2)c(F)c1 [compound 152] | – | 99 | 100 | 99 | 99 | – | – | – | –
18 | Cc1ccsc1C(=O)Nc1ccccc1-c1cnc(-n2ccc(C(F)(F)F)n2)c(C#N)c1 [compound 154] | – | – | – | – | – | 100* % | 0* % | 94* % | 59* %
19 | O=C(Nc1ccccc1-c1cnc(-n2ccc(C(F)F)n2)c(F)c1)c1ncccc1C(F)(F)F [compound 161] | – | 100 | 100 | 99 | 95 | – | – | – | –
20 | Cn1cc(C(=O)Nc2ccccc2-c2cnc(-n3ccc(C(F)F)n3)c(F)c2)c(C(F)F)n1 [compound 162] | – | 68 | 100 | 99 | 98 | – | – | – | –
21 | Cc1sccc1C(=O)Nc1ccccc1-c1cnc(-n2ccc(C(F)(F)F)n2)c(F)c1 [compound 163] | – | 79 | 100 | 96 | 97 | – | – | – | –
22 | O=C(Nc1ccccc1-c1cnc(-n2ccc(C(F)(F)F)n2)c(Cl)c1)c1scnc1C(F)(F)F [compound 165] | – | 0 | – | – | – | 98* % | 87* % | 99* % | –
23 | O=C(Nc1ccccc1-c1cnc(-n2ccc(C(F)(F)F)n2)c(Cl)c1)c1sccc1C(F)(F)F [compound 167] | – | – | – | – | – | 100* % | 94* % | 100* % | 98* %
24 | O=C(Nc1ccccc1-c1cnc(-n2ccc(C(F)(F)F)n2)c(Cl)c1)c1sccc1Cl [compound 168] | – | – | – | – | – | 99* % | 64* % | 95* % | 0* %
25 | Cc1scnc1C(=O)Nc1ccccc1-c1cnc(-n2ccc(C(F)(F)F)n2)c(Cl)c1 [compound 170] | – | – | – | – | – | 0* % | 0* % | 74* % | 50* %
26 | O=C(Nc1ccccc1-c1cnc(-n2ccc(C(F)(F)F)n2)c(Cl)c1)c1sccc1F [compound 176] | – | – | – | – | – | 0* % | 0* % | 93* % | 0* %
